Measured values: patent US20150237857A1, “ANTIBACTERIAL INHIBITORS” (MCMASTER UNIVERSITY, priority 2012, published 2015)
≈ marks a conversion by molar mass, not a printed value. Entries after “also recorded” stand apart in the source; their conditions may differ. Like-named read-outs stand apart in the source and are kept apart here.

Columns and labels:
[1] = molecular target: T1, recombinant PabA, PabB and PabC (Escherichia coli, UniProt P00903+P05041+P28305); assay: biochemical; design: species or system E. coli
T1 construct: poly-histidine (pDEST17) (N); made in house; host or cells: E. coli BL21AI (pDEST17, arabinose induction)
Procedure: Enzyme assays were conducted in triplicate at room temperature with 25 nM of PabA and PabB, 50 nM of PabC, 50 mM Tris-HCl (pH 7.5), 20 μM PLP, 1 mM L-glutamine, 40 μM chorismate and the indicated concentrations of MAC-173979. The inhibition assays were initiated by addition of a mixture of the three enzymes and quenched with an equal volume of freshly prepared 8M urea. The reaction progress curves were monitored every 10 minutes for 60 minutes and determined by a stopped HPLC-assay that allowed for the quantification of the conversion of chorismate to PABA. The two compounds were separated on a C18 reverse phase column (Nova-Pak C18, 4 μm, 3.9×150 mm, Waters) and eluted isocratically with 5% acetic acid in double distilled H2O. The analytes were visualized by UV absorbance at 275 nm and identified by comparing their retention times and UV absorption spectra to authentic standards. The progress curves were plotted to the rate equation of slow-binding inhibition: […]
using Sigma Plot 12.0 (SPSS, Inc., Chicago, Ill.), where v0 and vs are the initial and final steady-state reaction velocities, respectively, t is the time and kobs is the apparent first order rate constant for the interconversion between the initial and steady-state rates.
In order to directly test the biochemical activity of MAC-0173979 on PABA synthesis, an HPLC-based one-pot enzyme assay using recombinant PabA, PabB and PabC was set up and the formation of PABA was monitored by measuring its absorbance at 275 nm.
MAC173979 and an analog lacking the Michael acceptor (0-1000 μM) were each incubated with the PABA enzymes for 30 minutes prior to substrate addition. Reactions were quenched after 30 minutes with 8 M urea and analyzed by HPLC.

E. coli MG1655 [2] = assay: Minimum inhibitory concentration (MIC) determination; conditions: for MIC: Escherichia coli; for effect of intermediates of biotin biosynthesis on inhibitory activity (in words): KAPA, DAPA, DTB, biotin in media; for Fold suppression: MIC with supplement / MIC without
Procedure: The MIC values were determined in liquid minimal media and minimal media supplemented with amino acids, vitamins and nucleobases.
A single colony of E. coli MG1655 was grown overnight in 5 ml of M9 minimal media. The saturated culture was diluted 1/50 in fresh minimal media and allowed to grow until the OD600 reached ˜0.4. […] After mixing of the bacterial culture with the compounds, the OD600 of the plates was read using Envision to account for background absorbance. The plates were then incubated in a 37° C. stationary incubator for 16 hours before measuring their OD600. After subtracting any background absorbance contributed by colored or precipitated compounds, the MIC was defined as the lowest concentration of antibiotic that inhibits visible growth.

E. coli MG1655 [3] = assay: Metabolic suppression profiling (ChemArray); assay type: cell-based
[4] = system: E. coli wild-type, ΔltaEΔtdh and ΔltaEΔtdhΔkbl strains
Acinetobacter baumannii = assay: Activity against other organisms; assay type: cell-based
Procedure: (§1) The activity of MAC13772 was tested against a number of organisms in addition to Escherichia coli using methods similar to those described in Example 2.

Bacillus subtilis = assay: Activity against other organisms; assay type: cell-based
Procedure: as §1

Salmonella typhimurium = assay: Activity against other organisms; assay type: cell-based
Procedure: as §1

[5] = system: Mycobacterium tuberculosis; assay: Activity against other organisms; assay type: cell-based
Procedure: as §1

Klebsiella pneumonia = assay: Activity against other organisms; assay type: cell-based
Procedure: as §1

Staphylococcus aureus = assay: Activity against other organisms; assay type: cell-based
Procedure: as §1

Mycobacteria smegmatis = assay: MIC against Mycobacteria smegmatis in absence and presence of biotin; assay type: cell-based
BioA = BioA (Escherichia coli, UniProt P12995); assay: UV-visible spectra of BioA titrated with inhibitor; assay type: binding, E. coli
Procedure: To further determine if the inhibition of BioA by MAC13772 is mediated through the interaction of the hydrazine moiety in the compound with PLP in the active site of the enzyme, the UV-visible spectra of BioA was assessed when titrated with the inhibitor.

recombinant E. coli BioA = recombinant E. coli BioA (Escherichia coli, UniProt P12995); assay: BioA inhibition through a feeding assay of a bioA auxotroph; assay type: biochemical
Procedure: To determine if the step catalyzed by BioA was the target of this inhibitor, the inhibitory activity of MAC-0013772 against recombinant E. coli BioA was assayed through a feeding assay of a bioA auxotroph.

T1 sequence (P00903 whole entry): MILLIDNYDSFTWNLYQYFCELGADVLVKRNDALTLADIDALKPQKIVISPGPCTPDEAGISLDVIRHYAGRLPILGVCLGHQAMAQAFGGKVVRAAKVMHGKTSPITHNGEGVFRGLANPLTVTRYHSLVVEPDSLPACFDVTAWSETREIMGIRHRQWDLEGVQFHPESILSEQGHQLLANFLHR
T1 sequence (P05041 whole entry): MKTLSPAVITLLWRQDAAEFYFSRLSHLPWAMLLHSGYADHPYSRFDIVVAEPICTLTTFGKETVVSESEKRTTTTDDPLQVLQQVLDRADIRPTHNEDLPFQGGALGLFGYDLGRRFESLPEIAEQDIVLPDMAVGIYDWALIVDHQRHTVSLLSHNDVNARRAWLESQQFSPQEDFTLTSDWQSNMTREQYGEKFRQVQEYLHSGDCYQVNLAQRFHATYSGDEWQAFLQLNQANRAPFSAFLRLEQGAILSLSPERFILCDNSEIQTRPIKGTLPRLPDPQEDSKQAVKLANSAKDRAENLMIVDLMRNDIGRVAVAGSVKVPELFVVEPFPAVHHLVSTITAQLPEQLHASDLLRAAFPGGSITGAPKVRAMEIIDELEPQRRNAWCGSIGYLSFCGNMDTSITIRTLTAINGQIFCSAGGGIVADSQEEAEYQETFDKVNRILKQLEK
T1 sequence (P28305 whole entry): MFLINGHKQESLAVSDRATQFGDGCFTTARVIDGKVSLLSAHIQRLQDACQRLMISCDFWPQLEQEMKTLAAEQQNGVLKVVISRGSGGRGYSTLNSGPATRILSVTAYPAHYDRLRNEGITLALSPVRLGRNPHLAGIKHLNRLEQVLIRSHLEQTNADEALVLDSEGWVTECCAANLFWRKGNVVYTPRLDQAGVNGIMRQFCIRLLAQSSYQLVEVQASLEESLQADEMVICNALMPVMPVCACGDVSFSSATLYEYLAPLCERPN
Sequence of BioA (P12995 whole entry): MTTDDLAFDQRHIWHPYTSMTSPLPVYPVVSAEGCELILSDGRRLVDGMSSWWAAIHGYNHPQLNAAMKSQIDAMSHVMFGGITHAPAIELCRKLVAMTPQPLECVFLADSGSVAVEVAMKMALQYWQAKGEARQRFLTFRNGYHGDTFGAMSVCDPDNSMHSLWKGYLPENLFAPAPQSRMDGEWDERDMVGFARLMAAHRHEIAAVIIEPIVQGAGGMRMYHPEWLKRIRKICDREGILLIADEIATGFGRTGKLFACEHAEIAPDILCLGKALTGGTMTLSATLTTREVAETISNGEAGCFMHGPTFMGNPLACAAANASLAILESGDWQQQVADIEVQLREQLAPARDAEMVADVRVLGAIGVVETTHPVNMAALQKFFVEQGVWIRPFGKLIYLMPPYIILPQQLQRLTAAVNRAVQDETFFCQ
Sequence of recombinant E. coli BioA (P12995 whole entry): as above

**Q.** Which results are given for `O=C(C=C(Cl)Cl)c1cccc([N+](=O)[O-])c1` [MAC-0173979, 3,3-dichloro-1-(3-nitrophenyl)prop-2-en-1-one]?
**A.** IC50 [1]: 30 ± 2 µM; Ki [1]: 7.3 ± 1.3 µM; mechanism of inhibition of PABA synthesis ([1]; progress curves, kobs plot): irreversible time-dependent inhibitor; fold suppression of MIC on addition of PABA (E. coli MG1655 [2]; PABA added to the growth media): 16 fold; suppression of growth inhibitory activity by p-aminobenzoic acid (PABA) (E. coli MG1655 [3]; 4× MIC in M9 minimal media, PABA in growth media): suppressed; also recorded: fully reversed; suppression of growth inhibitory activity by methionine (E. coli MG1655 [3]; 4× MIC in M9 minimal media, methionine in growth media): to a certain extent; also recorded: fully reversed

**Q.** How did the “fold shift in MIC” value ([4]; wild-type strain, 40-640 μg/ml L-threonine) turn out when `COc1ccc(C(=O)CCN(C)C)cc1` [MAC-0168425, 3-(dimethylamino)-1-(4-methoxyphenyl)propan-1-one] was run?
**A.** 4-8 fold

**Q.** What about the “fold shift in MIC” value ([4]; ΔltaEΔtdh double deletion strain, 320-640 μg/ml L-threonine) of the same molecule?
**A.** 2 fold

**Q.** And the “suppression of activity by L-threonine” value ([4]; ΔltaEΔtdhΔkbl triple deletion mutant)?
**A.** completely lost

**Q.** What about the “suppression of growth inhibitory activity by L-serine” value (E. coli MG1655 [3]; 4× MIC in M9 minimal media, L-serine) of the same molecule?
**A.** not suppressed

**Q.** What about the “suppression of growth inhibitory activity by L-threonine” value (E. coli MG1655 [3]; 4× MIC in M9 minimal media, L-threonine) of the same molecule?
**A.** partially suppressed

**Q.** And the “suppression of growth inhibitory activity by glycine” value (E. coli MG1655 [3]; 4× MIC in M9 minimal media, glycine)?
**A.** strongly suppressed

**Q.** For `NNC(=O)CSc1ccccc1[N+](=O)[O-]` [MAC13772, 2-(2-nitrophenylthio) acetohydrazide], which antibacterial activity (Acinetobacter baumannii) is on record?
**A.** active

**Q.** And the antibacterial activity (Bacillus subtilis)?
**A.** active

**Q.** And the antibacterial activity (Salmonella typhimurium)?
**A.** active

**Q.** And the antibacterial activity [5]?
**A.** active

**Q.** And the antibacterial activity (Klebsiella pneumonia)?
**A.** active

**Q.** What about the antibacterial activity (Staphylococcus aureus) of the same molecule?
**A.** active

**Q.** And the MIC (Mycobacteria smegmatis; absence of biotin, read-out: MIC −bio)?
**A.** 4 µg/mL

**Q.** What about the MIC (Mycobacteria smegmatis; presence of 2 nM of biotin, read-out: MIC +bio) of the same molecule?
**A.** > 256 µg/mL

**Q.** What about the MIC (E. coli MG1655 [2]; MG1655, read-out: MIC −bio, absence of biotin) of the same molecule?
**A.** 8 µg/mL (≈ 35.2 µM)

**Q.** And the MIC (E. coli MG1655 [2]; MG1655, supplement: AA + VIT + NUC)?
**A.** > 256 µg/mL

**Q.** What about the MIC (E. coli MG1655 [2]; MG1655, supplement: BIOTIN) of the same molecule?
**A.** > 256 µg/mL

**Q.** What about the MIC (E. coli MG1655 [2]; MG1655, supplement: DAPA) of the same molecule?
**A.** > 256 µg/mL

**Q.** And the MIC (E. coli MG1655 [2]; MG1655, supplement: DTB)?
**A.** > 256 µg/mL

**Q.** And the MIC (E. coli MG1655 [2]; MG1655, supplement: KAPA)?
**A.** 8 µg/mL (≈ 35.2 µM)

**Q.** What about the “effect of intermediates of biotin biosynthesis on inhibitory activity (in words)” value (E. coli MG1655 [2]; listed as MAC-0013372) of the same molecule?
**A.** KAPA had no effect

**Q.** What about the “effect of intermediates of biotin biosynthesis on inhibitory activity (in words)” value (E. coli MG1655 [2]; listed as MAC-0013772) of the same molecule?
**A.** fully reversed by DAPA, DTB and biotin

**Q.** What about the Fold suppression (E. coli MG1655 [2]; supplement: AA + VIT + NUC) of the same molecule?
**A.** 32

**Q.** And the Fold suppression (E. coli MG1655 [2]; supplement: BIOTIN)?
**A.** 32

**Q.** What about the Fold suppression (E. coli MG1655 [2]; supplement: DAPA) of the same molecule?
**A.** 32

**Q.** And the Fold suppression (E. coli MG1655 [2]; supplement: DTB)?
**A.** 32

**Q.** And the Fold suppression (E. coli MG1655 [2]; supplement: KAPA)?
**A.** 1

**Q.** And the “stoichiometry of protein-ligand interaction (molar ratio plot)” value (BioA; [inhibitor]/[BioA])?
**A.** stoichiometric

**Q.** What about the “λmax of PLP-bound BioA after interaction with inhibitor” value (BioA; shift from 420 nm (internal aldimine) to PLP-inhibitor adduct) of the same molecule?
**A.** 393 nm

**Q.** And the IC50 (recombinant E. coli BioA)?
**A.** ~0.25 µM

**Q.** What about the “suppression of growth inhibitory activity by biotin” value (E. coli MG1655 [3]; biotin in the growth media) of the same molecule?
**A.** uniquely suppressed by biotin

**Q.** Which IC50 [1] does the source give for `O=C(CC(Cl)Cl)c1cccc([N+](=O)[O-])c1` [analog lacking the Michael acceptor, 3,3-dichloro-1-(3-nitrophenyl)propan-1-one] here?
**A.** 60 ± 7 µM
